Results from patent publication US8785483B2, “Methods for treating COPD” (The Board of Regents of the University of Texas System, priority 2010, dated 2014).

Experiments:
[1] = system: Muc5B; experiment: Western blot of Muc5B in IL-13-treated SAEC monolayer; type: cell-based, human; conditions: IL-13 48 h, immunoblotting
Procedure: FIGS. 6A-6B. AR inhibition prevents IL-13-induced expression of Mucin and transcription factor SPDEF in airway epithelial cell monolayer. (A) The airway epithelial cell monolayer at ALI was serum starved without or with fidarestat and incubated with IL-13 for 18 h. Total RNA was isolated and subsequently RT-PCR was performed to assess the expression of Muc5AC and SPDEF. The bar diagrams show densitometric analysis of the corresponding blots (n=4). *p<0.001 vs Control; **p<0.001 vs IL-13; (B) The monolayer of ciliated airway cells at ALI was treated with AR inhibitor for 24 h and subsequently incubated with IL-13 for 24 or 48 h. At the end of incubation, cell lysate was prepared and subjected to western blotting using antibodies against Muc5AC, Muc5B, and SPDEF. The membranes were stripped and re-probed with antibodies against GAPDH to show the equal loading of protein. A representative blot is shown (n=4). *p<0.0001 vs Control; **p<0.001 vs IL-13. […] Protein levels were determined using Bradford reagent (Biorad, Hercules, Calif.). […] The blots were then washed, exposed to HRP-conjugated secondary antibodies (1:5,000 dilution) for 1 h, and the antigen-antibody complex was detected by enhanced chemiluminescence (Amersham Pharmacia Biotech, Piscataway, N.J., USA). […]

[2] = system: JAK1; experiment: Western blot of JAK1 phosphorylation in airway epithelial monolayer; type: cell-based, human
Procedure: FIG. 7. AR inhibition prevents IL-13-induced phosphorylation of JAK-1, ERK1/2 and STAT-6 in airway epithelial monolayer. The ciliated monolayer of airway cells at ALI was treated with AR inhibitor for 24 h and stimulated with IL-13 for different time periods as indicated. At the end of incubation, cells were lysed and cell lysate was subjected to western blotting using antibodies against phosphorylated and nonphosphorylated JAK-1, ERK1/2 and STAT-6 to analyze the activation of these signaling proteins. A representative blot is shown (n=4). #p<0.001 vs Control; *p<0.01 and **p<0.001 vs IL-13. For air-liquid interface (ALI) culture, SAEC were seeded at 8.5×10^4 cells/12-mm-diameter PET transparent insert with […] pores (12-well millicell culture insert; Millipore) and pre-coated with rat tail collagen type-1 (Sigma-Aldrich). The cells were grown submerged in the differentiation medium as described earlier by Zhen et al. (Am J Respir Cell Mol Biol 36: 244-253, 2007). […] Protein levels were determined using Bradford reagent (Biorad, Hercules, Calif.). […] The blots were then washed, exposed to HRP-conjugated secondary antibodies (1:5,000 dilution) for 1 h, and the antigen-antibody complex was detected by enhanced chemiluminescence (Amersham Pharmacia Biotech, Piscataway, N.J., USA). […]

`NC(=O)[C@@H]1C[C@]2(NC(=O)NC2=O)c2cc(F)ccc2O1` [fidarestat, (2S,4S)-2-aminoformyl-6-fluoro-spiro[chroman-4,4′-imidazolidine]-2′,5′-dione] was tested, and the “prevention of IL-13-induced increase in Muc5B protein” value [1] was about 50%, the “IL-13-induced phosphorylation of JAK1” value ([2]; ALI monolayer, AR inhibitor 24 h prior to IL-13) was “decreased significantly” and the “basal phosphorylation of JAK1” value ([2]; AR inhibitor alone, no IL-13) was “decreased”.
